Test results published in US8728539B2, “Method of enhancing intestinal pinocytosis of immunoglobulins in postnatal domestic mammals” (Incorporated Administrative Agency, National Agriculture …, priority 2004, dated 2014).

Key:
calves (Holstein types) [1] = experiment: IgG in plasma of postnatal calves fed colostrum with added selenium, measured by radial immuno-diffusion (RID); assay type: in vivo
calves (Holstein types) [2] = experiment: as above; assay type: in vivo; conditions: for IgG in Plasma: plasma 24 hours post-parturition
Protocol: In the example, colostrum added with selenium was administered to one of the two calves (Holstein types) in a pair, and colostrum without selenium was administered to the other calf. A total of 32 pairs of calves were employed for experimental purposes. For equalizing the experimental conditions of these two sets of calves, they were selected based on their proximities in body weight. The body weights ranged from 30.8-56.9 kg, and the differences between in body weight within a pair were less than 2.5 kg.
(§1) As a supply source of selenium, sodium selenite was used. In order to avoid different absorption rates of immunoglobulins based on different types of colostrum, the same amounts of colostrum milked from the same source were fed to these two calves in a pair. The colostrums fed (frozen for preservation) were of the four types as follows: the first milking post-parturition (Colostrum 1), the second milking post-parturition (Colostrum 2), the third milking post-parturition (Colostrum 3), and the fourth milking post-parturition (Colostrum 4). 2 liters of Colostrum 1 (1 L×2 bottles) were taken, and for the rest, 4 liters (2L×2 bottles) were taken, respectively. 1 liter of Colostrum 1 within 2 hours post-parturition was fed, and then 2 liters of Colostrum 2, 3 and 4 were fed, respectively 12, 24 and 36 hours post-parturition. The concentrations of immunoglobulins in the colostrums used were 24.3-129.0 mg/ml, and those of selenium were 0.06-0.1 ppm (before adding selenium). The concentrations of immunoglobulins G (IgG) in plasma of calves 24 hours post-parturition were measured by means of radial immuno-diffusion (RID). The experiments as above were carried out while varying the selenium content based on the number of addition of selenium, i.e., (1) adding selenium only to Colostrum 1 (1.0-5.0 ppm), and (2) adding selenium to all four types of colostrum (0.2-4.0 ppm).

calves (Holstein types) [3] = experiment: Biochemical blood tests (18 factors) for adverse effects of added selenium; assay type: in vivo; conditions: blood samples 24, 48 hours and 1 week post-parturition; versus colostrum without selenium
Protocol: Moreover, the blood samples were taken 24, 48 hours and 1 week post-parturition respectively, and biochemical blood tests (with 18 factors) were carried out to investigate any adverse effects of added selenium on the health conditions of calves. There was little difference between the test results of the calves administered with colostrum added with selenium, and those of the calves administered with colostrum without selenium.

calves (Holstein types) [4] = experiment: Absorption of lactalbumin into plasma of calves (FIG. 5); assay type: in vivo; conditions: 3 ppm selenium in first colostrum feed; 24 hours postnatal; versus no addition
Protocol: To calves administered with colostrum with selenium, selenium was added only to the first colostrum feeds.
Therefore, selenium is effective in absorption of nonimmunoglobulin proteins such as lactalbumin. Accordingly, selenium enhances pinocytosis, thereby enhancing immunoglobulin proteins or nonimmunoglobulin proteins.

[5] = Selenium concentration in plasma of calves after administration (FIG. 4); assay type: in vivo, calves (Holstein types); conditions: 3 ppm selenium, administered only once within 3 hours postnatal; versus no addition
Description: as §1, with “ppm). […]” for “ppm).”

[6] = 3 ppm selenium, first feed only, versus no addition

O=[Se]([O-])[O-].[Na+].[Na+] [Se, sodium selenite]
duration of high immunoglobulin G level in blood (FIG. 7) (calves (Holstein types) [1]; [6]): the high level against no addition was maintained over 14 days (2 weeks) | immunoglobulin G level in blood immediately after administration (FIG. 7) (calves (Holstein types) [1]; [6]): immunoglobulin G level immediately after administration of selenium is high | IgG in Plasma (calves (Holstein types) [1]; 5.0 ppm Se added to all four colostrum feeds (4x), plasma 24 hours post-parturition, average of 4 calves): 24.6 mg/mL | immunoglobulin G level in blood, selenium and colostrum administered separately (FIG. 6) (calves (Holstein types) [1]; only 3 ppm selenium within 2 hours postnatal, then only colostrum at 12, 24, 36 hours, within 24 hours postnatal, versus no addition): absorption level of immunoglobulin G is high | IgG in Plasma (calves (Holstein types) [2]; 0.2 ppm Se added to all four colostrum feeds (4x), average of 3 calves): 25.7 mg/mL | IgG in Plasma (calves (Holstein types) [2]; 1 ppm Se added only to first colostrum feed (1x), average of 3 calves): 17 mg/mL | IgG in Plasma (calves (Holstein types) [2]; 1.0 ppm Se added to all four colostrum feeds (4x), average of 5 calves): 32.9 mg/mL | IgG in Plasma (calves (Holstein types) [2]; 2 ppm Se added only to first colostrum feed (1x), average of 3 calves): 16 mg/mL | IgG in Plasma (calves (Holstein types) [2]; 3 ppm Se added only to first colostrum feed (1x), average of 6 calves): 21.5 mg/mL | IgG in Plasma (calves (Holstein types) [2]; 4 ppm Se added only to first colostrum feed (1x), average of 4 calves): 17.4 mg/mL | IgG concentration in plasma, four feeds with selenium versus first feed only with selenium (calves (Holstein types) [2]; 4x versus 1x addition of selenium): about the same level | IgG in Plasma (calves (Holstein types) [2]; 5 ppm Se added only to first colostrum feed (1x), average of 4 calves): 23 mg/mL | IgG concentrations in plasma versus calves given colostrum without selenium (FIGS. 2 and 3) (calves (Holstein types) [2]; in most of the experimental conditions, 1x and 4x addition): shown to be higher | adverse effects on the health conditions of calves, biochemical blood tests (18 factors) (calves (Holstein types) [3]): no adverse effects | absorption of lactalbumin (FIG. 5) (calves (Holstein types) [4]): enhances the absorption of lactalbumin | selenium level in blood, temporal change (FIG. 4) [5]: high selenium level in blood was maintained over 4 weeks postnatal
